Measurements reported in patent publication US20180200257A1, “METHODS FOR THE TREATMENT OF INFLAMMATORY DISORDERS” (Galapagos NV, priority 2015, published 2018).

Tested on: subjects with moderately to severely active RA who have an inadequate response to methotrexate (MTX)
Assay: Study 2 (monotherapy) - Aspartate Aminotransferase (AST) levels
Assay type: in vivo, human
Source text: Randomized, double-blind, placebo-controlled, multicenter, phase IIb dose finding study of Compound 1 (dosed as a [Compound 1:HCl:3H2O]) administered for 24 weeks as monotherapy to subjects with moderately to severely active rheumatoid arthritis who have an inadequate response to methotrexate alone
Double-blind, placebo-controlled, monotherapy study in subjects with moderately to severely active RA who have an inadequate response to methotrexate (MTX) (oral or parenteral).
280 subjects randomized to one of 3 doses of Compound 1 (dosed as a [Compound 1:HCl:3H2O]) or to placebo, given once daily (q.d.).
Twelve weeks of treatment with Compound 1 (dosed as a [Compound 1:HCl:3H2O]) at 50 mg, 100 mg, or 200 mg q.d.; or placebo. At Week 12, all subjects on placebo and the subjects on the 50 mg dose who have not achieved 20% improvement in swollen joint count (SJC66) and tender joint count (TJC68) will be assigned to 100 mg q.d. in a blinded fashion and will continue treatment until Week 24. Subjects in the other groups will maintain their randomized treatment until Week 24.
AST levels determination is available at Quest Diagnostics, Clinical Trials, Quest House, 125-135 Staines Road, Hounslow, Middlesex, TW3 3JB, United Kingdom under Catalogue n#84450. For Study 3, the data are obtained at BARC Europe, 3B,Industrie Park, Zwijnaarde, B-9052 Ghent, Belgium.
AST catalyzes the transamination of aspartate and 2-oxoglutarate, forming L-glutamate and oxalacetate. The oxalacetate is reduced to L-malate by malate dehydrogenase, whilst NADH is converted to NAD+, measured spectrophotometrically. Guidelines for the AST value have been issued by the association for Clinical Biochemistry and Laboratory Medicine, 130-132 Tooley Street LONDON SE1 2TU, united Kingdom, wherein the AST value should be below 34 U/l in Female and below 45 U/L in male. As disclosed in the respective study protocols for Study 1 or 2, at week 12, depending on the outcome of their treatment, the subjects may be continued in their initial treatment course, or reassigned to another treatment group in a randomized blinded fashion until week 24. Therefore, the number of subjects (N) for the period of either 12 weeks, or 24 weeks is provided to reflect this redistribution at week 12.
Subjects in the other groups maintained their randomized treatment until Week 24.

[1] = 12 weeks results, 50 mg q.d., week 1
[2] = 12 weeks results, 50 mg q.d., week 2
[3] = 12 weeks results, 50 mg q.d., week 4
[4] = 12 weeks results, 50 mg q.d., week 8
[5] = 12 weeks results, 50 mg q.d., week 12
[6] = 12 weeks results, 100 mg q.d., week 1
[7] = 12 weeks results, 100 mg q.d., week 2
[8] = 12 weeks results, 100 mg q.d., week 4
[9] = 12 weeks results, 100 mg q.d., week 8
[10] = 12 weeks results, 100 mg q.d., week 12
[11] = 12 weeks results, 200 mg q.d., week 1
[12] = 12 weeks results, 200 mg q.d., week 2
[13] = 12 weeks results, 200 mg q.d., week 4
[14] = 12 weeks results, 200 mg q.d., week 8
[15] = 12 weeks results, 200 mg q.d., week 12
[16] = 24 weeks results, 50 mg q.d. non responders switching to 100 mg q.d. at week 12, week 1
[17] = 24 weeks results, 50 mg q.d. non responders switching to 100 mg q.d. at week 12, week 2
[18] = 24 weeks results, 50 mg q.d. non responders switching to 100 mg q.d. at week 12, week 4
[19] = 24 weeks results, 50 mg q.d. non responders switching to 100 mg q.d. at week 12, week 8
[20] = 24 weeks results, 50 mg q.d. non responders switching to 100 mg q.d. at week 12, week 12
[21] = 24 weeks results, 50 mg q.d. non responders switching to 100 mg q.d. at week 12, week 16
[22] = 24 weeks results, 50 mg q.d. non responders switching to 100 mg q.d. at week 12, week 20
[23] = 24 weeks results, 50 mg q.d. non responders switching to 100 mg q.d. at week 12, week 24
[24] = 24 weeks results, 50 mg q.d. responders, week 1
[25] = 24 weeks results, 50 mg q.d. responders, week 2
[26] = 24 weeks results, 50 mg q.d. responders, week 4
[27] = 24 weeks results, 50 mg q.d. responders, week 8
[28] = 24 weeks results, 50 mg q.d. responders, week 12
[29] = 24 weeks results, 50 mg q.d. responders, week 16
[30] = 24 weeks results, 50 mg q.d. responders, week 20
[31] = 24 weeks results, 50 mg q.d. responders, week 24
[32] = 24 weeks results, 100 mg q.d., week 1
[33] = 24 weeks results, 100 mg q.d., week 2
[34] = 24 weeks results, 100 mg q.d., week 4
[35] = 24 weeks results, 100 mg q.d., week 8
[36] = 24 weeks results, 100 mg q.d., week 12
[37] = 24 weeks results, 100 mg q.d., week 16
[38] = 24 weeks results, 100 mg q.d., week 20
[39] = 24 weeks results, 100 mg q.d., week 24
[40] = 24 weeks results, 200 mg q.d., week 1
[41] = 24 weeks results, 200 mg q.d., week 2
[42] = 24 weeks results, 200 mg q.d., week 4
[43] = 24 weeks results, 200 mg q.d., week 8
[44] = 24 weeks results, 200 mg q.d., week 12
[45] = 24 weeks results, 200 mg q.d., week 16
[46] = 24 weeks results, 200 mg q.d., week 20
[47] = 24 weeks results, 200 mg q.d., week 24
[48] = 24 weeks results, placebo switching to 100 mg q.d. at week 12, week 16
[49] = 24 weeks results, placebo switching to 100 mg q.d. at week 12, week 20
[50] = 24 weeks results, placebo switching to 100 mg q.d. at week 12, week 24

O=C(Nc1nc2cccc(-c3ccc(CN4CCS(=O)(=O)CC4)cc3)n2n1)C1CC1 [Compound 1, cyclopropanecarboxylic acid {5-[4-(1,1-dioxo-thiomorpholin-4-ylmethyl)-phenyl]-[1,2,4]triazolo[1,5-a]pyridin-2-yl}-amide]
Study 2 - AST Mean CFB [1]: −1.8 IU/L
Study 2 - AST Mean percentage CFB [1]: 0.54%
Study 2 - AST Mean CFB [2]: −2.0 IU/L
Study 2 - AST Mean percentage CFB [2]: 1.54%
Study 2 - AST Mean CFB [3]: −1.7 IU/L
Study 2 - AST Mean percentage CFB [3]: −0.21%
Study 2 - AST Mean CFB [4]: −2.5 IU/L
Study 2 - AST Mean percentage CFB [4]: −0.42%
Study 2 - AST Mean CFB [5]: −0.2 IU/L
Study 2 - AST Mean percentage CFB [5]: 2.69%
Study 2 - AST Mean CFB [6]: 0.4 IU/L
Study 2 - AST Mean percentage CFB [6]: 8.99%
Study 2 - AST Mean CFB [7]: 1.3 IU/L
Study 2 - AST Mean percentage CFB [7]: 9.02%
Study 2 - AST Mean CFB [8]: 1.3 IU/L
Study 2 - AST Mean percentage CFB [8]: 15.05%
Study 2 - AST Mean CFB [9]: 1.9 IU/L
Study 2 - AST Mean percentage CFB [9]: 18.05%
Study 2 - AST Mean CFB [10]: 1.9 IU/L
Study 2 - AST Mean percentage CFB [10]: 16.02%
Study 2 - AST Mean CFB [11]: 0.1 IU/L
Study 2 - AST Mean percentage CFB [11]: 7.59%
Study 2 - AST Mean CFB [12]: 0.9 IU/L
Study 2 - AST Mean percentage CFB [12]: 11.22%
Study 2 - AST Mean CFB [13]: 0.8 IU/L
Study 2 - AST Mean percentage CFB [13]: 13.13%
Study 2 - AST Mean CFB [14]: 1.4 IU/L
Study 2 - AST Mean percentage CFB [14]: 16.67%
Study 2 - AST Mean CFB [15]: 1.1 IU/L
Study 2 - AST Mean percentage CFB [15]: 15.21%
Study 2 - AST Mean CFB [16]: −0.4 IU/L
Study 2 - AST Mean percentage CFB [16]: −1.15%
Study 2 - AST Mean CFB [17]: 0.3 IU/L
Study 2 - AST Mean percentage CFB [17]: 2.57%
Study 2 - AST Mean CFB [18]: 0.3 IU/L
Study 2 - AST Mean percentage CFB [18]: 2.84%
Study 2 - AST Mean CFB [19]: 0.0 IU/L
Study 2 - AST Mean percentage CFB [19]: 1.89%
Study 2 - AST Mean CFB [20]: 0.8 IU/L
Study 2 - AST Mean percentage CFB [20]: 7.36%
Study 2 - AST Mean CFB [21]: 0.8 IU/L
Study 2 - AST Mean percentage CFB [21]: 5.82%
Study 2 - AST Mean CFB [22]: 1.8 IU/L
Study 2 - AST Mean percentage CFB [22]: 13.66%
Study 2 - AST Mean CFB [23]: 2.6 IU/L
Study 2 - AST Mean percentage CFB [23]: 17.42%
Study 2 - AST Mean CFB [24]: −2.1 IU/L
Study 2 - AST Mean percentage CFB [24]: 0.98%
Study 2 - AST Mean CFB [25]: −2.6 IU/L
Study 2 - AST Mean percentage CFB [25]: 1.26%
Study 2 - AST Mean CFB [26]: −2.3 IU/L
Study 2 - AST Mean percentage CFB [26]: −1.03%
Study 2 - AST Mean CFB [27]: −3.2 IU/L
Study 2 - AST Mean percentage CFB [27]: −1.06%
Study 2 - AST Mean CFB [28]: −0.5 IU/L
Study 2 - AST Mean percentage CFB [28]: 1.37%
Study 2 - AST Mean CFB [29]: 0.5 IU/L
Study 2 - AST Mean percentage CFB [29]: 8.81%
Study 2 - AST Mean CFB [30]: 0.5 IU/L
Study 2 - AST Mean percentage CFB [30]: 7.58%
Study 2 - AST Mean CFB [31]: −0.5 IU/L
Study 2 - AST Mean percentage CFB [31]: 5.14%
Study 2 - AST Mean CFB [32]: 0.4 IU/L
Study 2 - AST Mean percentage CFB [32]: 8.99%
Study 2 - AST Mean CFB [33]: 1.3 IU/L
Study 2 - AST Mean percentage CFB [33]: 9.02%
Study 2 - AST Mean CFB [34]: 1.3 IU/L
Study 2 - AST Mean percentage CFB [34]: 15.05%
Study 2 - AST Mean CFB [35]: 1.9 IU/L
Study 2 - AST Mean percentage CFB [35]: 18.05%
Study 2 - AST Mean CFB [36]: 1.9 IU/L
Study 2 - AST Mean percentage CFB [36]: 16.02%
Study 2 - AST Mean CFB [37]: 5.4 IU/L
Study 2 - AST Mean percentage CFB [37]: 23.15%
Study 2 - AST Mean CFB [38]: 2.4 IU/L
Study 2 - AST Mean percentage CFB [38]: 23.16%
Study 2 - AST Mean CFB [39]: 1.5 IU/L
Study 2 - AST Mean percentage CFB [39]: 15.75%
Study 2 - AST Mean CFB [40]: 0.1 IU/L
Study 2 - AST Mean percentage CFB [40]: 7.59%
Study 2 - AST Mean CFB [41]: 0.9 IU/L
Study 2 - AST Mean percentage CFB [41]: 11.22%
Study 2 - AST Mean CFB [42]: 0.8 IU/L
Study 2 - AST Mean percentage CFB [42]: 13.13%
Study 2 - AST Mean CFB [43]: 1.4 IU/L
Study 2 - AST Mean percentage CFB [43]: 16.67%
Study 2 - AST Mean CFB [44]: 1.1 IU/L
Study 2 - AST Mean percentage CFB [44]: 15.21%
Study 2 - AST Mean CFB [45]: 2.2 IU/L
Study 2 - AST Mean percentage CFB [45]: 21.14%
Study 2 - AST Mean CFB [46]: 1.7 IU/L
Study 2 - AST Mean percentage CFB [46]: 17.43%
Study 2 - AST Mean CFB [47]: 1.4 IU/L
Study 2 - AST Mean percentage CFB [47]: 17.74%
Study 2 - AST Mean CFB [48]: 0.9 IU/L
Study 2 - AST Mean percentage CFB [48]: 8.60%
Study 2 - AST Mean CFB [49]: 2.2 IU/L
Study 2 - AST Mean percentage CFB [49]: 16.10%
Study 2 - AST Mean CFB [50]: 2.1 IU/L
Study 2 - AST Mean percentage CFB [50]: 13.64%
